In BindingDB's records for doi:10.1021/jm00010a025 (Merck Sharp & Dohme Research Laboratories, 1995):

What was measured:
[1] = Binding activity against 5-hydroxytryptamine 3 receptor from rat cortex homogenate using [3H]-Q-ICS 205-930 as radioligand.
[2] = Binding activity against 5-hydroxytryptamine 2C receptor from pig cortex membrane using [3H]mesulergine as radioligand.
[3] = Binding activity against 5-hydroxytryptamine 3 receptor from rat cortex homogenate using [3H]-Q-ICS 205-930 as radioligand; NA Not Available
[4] = Binding activity against 5-hydroxytryptamine 3 receptor from rat cortex homogenate using [3H]-Q-ICS 205-930 as radioligand.; remark: listed apart in the source

Row | Compound | IC50 [1] | IC50 [2] | IC50 [3] | IC50 [4]
1 | CN(C)CCc1c[nH]c2ccc(Cc3nnn(C)n3)cc12 | 79.4 nM |  |  | 
2 | CN(C)CCc1c[nH]c2ccc(Cn3ncnn3)cc12 | 39.8 nM | 1000 nM |  | 
3 | Cc1nccn1-c1ccc2[nH]cc(CCN(C)C)c2c1 | 7.94 nM |  |  | 
4 | CN(C)CCc1c[nH]c2ccc(Cn3ccnn3)cc12 |  |  | 50.1 nM | 
5 | Cc1nccn1Cc1ccc2[nH]cc(CCN(C)C)c2c1 | 63.1 nM | 3160 nM |  | 
6 | CN(C)CCc1c[nH]c2ccc(Cc3nnn[nH]3)cc12 | 3980 nM | > 10000 nM |  | 
7 | CN(C)CCc1c[nH]c2ccc(Cn3cnnn3)cc12 | 39.8 nM | 2000 nM |  | 
8 | CN(C)CCc1c[nH]c2ccc(Cn3ccnc3)cc12 |  | 3980 nM |  | 31.6 nM
9 | CCn1nnnc1Cc1ccc2[nH]cc(CCN(C)C)c2c1 | 25.1 nM | > 10000 nM |  | 
10 | CN(C)CCc1c[nH]c2ccc(Cc3nncn3C)cc12 | 25.1 nM |  |  | 
11 | CCn1nnc(Cc2ccc3[nH]cc(CCN(C)C)c3c2)n1 | 126 nM |  |  | 
12 | CN(C)CCc1c[nH]c2ccc(Cc3nnnn3C)cc12 | 25.1 nM |  |  | 
13 | CN(C)CCc1c[nH]c2ccc(Cc3ncnn3C)cc12 |  | > 10000 nM |  | 100 nM
